We go through one molecule from patent US8017350B2, “Glimepiride- and insulin-induced glycosylphosphatidylinositol-specific phospholipase C regulation” (Sanofi-Aventis Deutschland GmbH, priority 2004, dated 2011).

For assay [1], the target named is T1, rat serum GPI-PLD (Rattus norvegicus, UniProt Q8R2H5).
T1 construct: GPI-PLD (rat serum) was assayed according to; from tissue; host or cells: rat serum
Put plainly: GPI-PLD (rat serum) assay, human placental aP substrate. In kind it is biochemical. The following applies: FIG. 2; read-out: apparent IC50. Here is the method:
GPI-PLD (rat serum) was assayed according to “Hari et al. (1997) Biochim. Biophys. Acta 1355: 293-302” by incubation with 10 μl of human placental aP solution (100 U/ml in 10 mM Hepes/NaOH, pH 7.0, 150 mM NaCl) in 100 μl of 200 mM Tris/maleate (pH 7.0) and 1% Nonidet P-40 for 10 min at 37° C. and subsequent termination of the reaction by addition of 0.4 ml of ice-cold stop buffer (10 mM Hepes/NaOH, pH 7.0, 150 mM NaCl, 0.1 mM MgCl2 and 0.01 mM zinc acetate). GPI-PLC (T. brucei) was assayed as described in “Mensa-Wilmot et al. (1995) Methods Enzymol. […]
Pelleted hc/lcDIGs (10-50 μg protein) or (G)PI-PLC reaction mixtures (0.5 ml) were separated into amphiphilic and hydrophilic proteins using partitioning between TX-114-enriched and depleted phases according to “Bordier, C., (1981) J. Biol, Chem. […]” by suspending in 1 ml of ice-cold TX-114 (1%), 25 mM Tris/HCl (pH 7.4), 144 mM NaCl or mixing with 0.5 ml of ice-cold TX-114 (2%), respectively. […] After re-extraction of the lower TX-114-enriched phase, aliquots of the pooled upper TX-114-depleted phase were measured for 5′-Nuc, aP and AChE activity or precipitated (15 polyethylene glycol 4000) for SDS-PAGE analysis.
FIG. 2: Potency of GPI-2350. […] The lipolytic activity was calculated as % of the control reaction in the absence of GPI-2350 (set at 100%). […]

For assay [2], the system named is rat adipocyte GPI-PLC. Nature of the assay: adipocyte GPI-PLC assay (plasma membranes or hc/lcDIGs, AChE substrate, TX-114 partitioning). Format: biochemical. The protocol:
GPI-PLD (rat serum) was assayed according to “Hari et al. (1997) Biochim. Biophys. Acta 1355: 293-302” by incubation with 10 μl of human placental aP solution (100 U/ml in 10 mM Hepes/NaOH, pH 7.0, 150 mM NaCl) in 100 μl of 200 mM Tris/maleate (pH 7.0) and 1% Nonidet P-40 for 10 min at 37° C. and subsequent termination of the reaction by addition of 0.4 ml of ice-cold stop buffer (10 mM Hepes/NaOH, pH 7.0, 150 mM NaCl, 0.1 mM MgCl2 and 0.01 mM zinc acetate). GPI-PLC (T. brucei) was assayed as described in “Mensa-Wilmot et al. (1995) Methods Enzymol. 250: 641-655” by incubation with 5 μl of human placental aP solution (see above) in 50 μl of 50 mM Tris/HCl (pH 8.0), 0.25% Nonidet P-40 and 5 mM EDTA for 30 min at 37° C. and subsequent termination of the reaction by addition of 0.45 ml of stop buffer. PI-PLC (B. cereus) and adipocyte GPI-PLC (5-25 μg plasma membranes or hc/lcDIGs) were assayed by incubation with 10 μl of bovine erythrocyte acetylcholinesterase (AChE) solution (12 U/ml in 10 mM Tris/HCl, pH 7.4, 144 mM NaCl, 0.1% TX-100) in 100 μl of 20 mM Hepes/KOH (pH 7.8), 144 mM NaCl, 0.1% TX-100, 0.2 mM MgCl2 for 1 h at 25° C. and subsequent termination by adding 5 μl of glacial acetic acid and then 0.4 ml of 10 mM Tris/HCl (pH 7.4), 144 mM NaCl. Each reaction mixture was subjected to TX-114 partitioning (see below).
Pelleted hc/lcDIGs (10-50 μg protein) or (G)PI-PLC reaction mixtures (0.5 ml) were separated into amphiphilic and hydrophilic proteins using partitioning between TX-114-enriched and depleted phases according to “Bordier, C., (1981) J. Biol, Chem. […]” by suspending in 1 ml of ice-cold TX-114 (1%), 25 mM Tris/HCl (pH 7.4), 144 mM NaCl or mixing with 0.5 ml of ice-cold TX-114 (2%), respectively. After incubation for 1 h on ice, the mixture was layered onto a cushion of 0.4 ml of 0.25 M sucrose and 25 mM Tris/HCl (pH 7.4) on ice. Phase separation was induced by warming up to 37° C. and subsequent centrifugation (10,000×g, 1 min). After re-extraction of the lower TX-114-enriched phase, aliquots of the pooled upper TX-114-depleted phase were measured for 5′-Nuc, aP and AChE activity or precipitated (15 polyethylene glycol 4000) for SDS-PAGE analysis.
Table 1: GPI-PLC of hcDIGs from rat adipocytes, GPI-PLC from T. brucei and PI-PLC from B. cereus were incubated with solubilized and partially purified bovine erythrocyte AChE or human placental aP in the absence or presence of increasing concentrations (0.05 μM-1 mM) of the inhibitors indicated under appropriate conditions (see Materials and Methods). Cleavage rate was calculated from the amount of hydrophilic AChE and aP activity recovered with the TX-114-depleted phase upon TX-114 partitioning. […]

The test system of assay [3] is pp59Lyn and IRS-1 in isolated rat adipocytes. Put plainly: tyrosine phosphorylation of pp59Lyn and IRS-1. Format: cell-based. Here is the method: Polypeptides separated by SDS-PAGE were transferred to polyvinylidene difluoride membranes using the semidry procedure as described in “Müller, G. et al., (2001) Mol. Cell. Biol. 21: 4553-4567”. Washed membranes were incubated with anti-caveolin-1 (1:2000), anti-pp59^Lyn (1:1250), anti-aP (1:500), anti-5′-Nuc (1:750) and anti-IRS-1 (1:2000) antibodies for 4 h at 15° C. Washed membranes were incubated with horseradish peroxidase-coupled secondary goat anti-mouse (1:2000) or goat anti-rabbit IgG (1:4000) antibodies. Labeled proteins were visualized by enhanced chemiluminescence.
FIG. 7: Effect of GPI-2350 on the glimepiride/insulin-induced activation of signaling proteins. Isolated rat adipocytes were treated (5 min, 37° C.) without or with GPI-2350 (Panels A, 50 μM; Panels B, increasing conc.) and then incubated (120 min, 37° C.) in the absence or presence of insulin (10 nM) or glimepiride (20 μM). IRS-1 and pp59^Lyn were immunoprecipitated from the defatted postnuclear infranatant (see Materials and Methods) and solubilized combined hc/lcDIGs, respectively, and then immunoblotted for phosphotyrosine. […]

T1 sequence (Q8R2H5 24-843): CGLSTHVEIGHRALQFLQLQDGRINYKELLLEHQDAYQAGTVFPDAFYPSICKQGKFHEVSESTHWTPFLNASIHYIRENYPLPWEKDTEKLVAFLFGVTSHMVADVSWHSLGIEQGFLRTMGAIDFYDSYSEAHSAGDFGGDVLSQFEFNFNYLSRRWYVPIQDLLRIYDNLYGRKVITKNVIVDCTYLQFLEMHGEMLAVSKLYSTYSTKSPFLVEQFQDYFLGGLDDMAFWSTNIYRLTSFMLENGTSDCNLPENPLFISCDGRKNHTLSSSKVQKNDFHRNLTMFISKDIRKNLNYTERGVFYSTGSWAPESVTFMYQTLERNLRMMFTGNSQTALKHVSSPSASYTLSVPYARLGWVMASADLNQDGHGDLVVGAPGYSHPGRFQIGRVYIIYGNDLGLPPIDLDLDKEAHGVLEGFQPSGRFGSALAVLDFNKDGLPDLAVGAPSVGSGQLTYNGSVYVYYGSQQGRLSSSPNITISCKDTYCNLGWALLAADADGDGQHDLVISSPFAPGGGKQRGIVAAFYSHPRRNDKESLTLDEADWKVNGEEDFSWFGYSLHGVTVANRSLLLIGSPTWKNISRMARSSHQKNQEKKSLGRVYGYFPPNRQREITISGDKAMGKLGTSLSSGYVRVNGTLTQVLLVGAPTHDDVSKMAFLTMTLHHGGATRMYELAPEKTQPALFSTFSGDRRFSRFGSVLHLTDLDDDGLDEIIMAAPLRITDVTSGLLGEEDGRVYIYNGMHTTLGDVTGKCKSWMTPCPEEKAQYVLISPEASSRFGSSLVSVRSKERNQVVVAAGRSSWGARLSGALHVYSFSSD

With `CCCCCCCCCCCCP1(=O)O[C@@H]2[C@H](O)[C@@H](O)[C@H](O)[C@@H](O)[C@@H]2O1` (some centres unmarked) [GPI-2350, myo-inositol-1,2-cyclo-dodecylphosphonic acid], the IC50 – broadly, the concentration that inhibits the measured activity by half – in assay [1] is 1000 nM; in assay [2] (GPI-PLC of hcDIGs from rat adipocytes, inhibitor 0.05 μM-1 mM), 200 to 500 nM. For the same molecule, in assay [2] (hcDIGs treated with 50 μM, reisolated, extensively washed, incubated without inhibitor), the “lipolytic cleavage of AChE after washout” value was “only low lipolytic cleavage”. Further, the “effect on insulin-induced tyrosine phosphorylation of IRS-1” value in assay [3] is “only marginally reduced”. Moreover, in assay [3] (50 μM), the “effect on tyrosine phosphorylation of pp59Lyn and IRS-1 in response to glimepiride” value is “almost complete blockade”.
